# In patent US11472758B2, “Methods for obtaining compounds from a plant or fungus material, respective compositions, and uses thereof” (Real Isolates, LLC, priority 2020, dated 2022):
# Tests used:
# [1] = system: 15-lipoxygenase (15-LOX); details: has been shown; cited from earlier work
# [2] = target: T1, CB2R (Homo sapiens, UniProt P34972); set-up: host or cells: brain synaptosomal samples; COS-7 over-expression; details: brain synaptosomal samples; COS-7 over-expression model; cited from earlier work
# [3] = target: T2, CB1R (Homo sapiens, UniProt P21554); set-up: host or cells: brain synaptosomal samples; COS-7 over-expression; details: brain synaptosomal samples; COS-7 over-expression model; cited from earlier work
# [4] = system: mice; details: cited from earlier work
# [5] = target: T1, CB2R; details: known; cited from earlier work
# [6] = system: volunteer with severe Crohn's disease; assay: Human trial of HCD or MCD for Crohn's disease; type: in vivo
# Excerpt: A volunteer with severe Crohn's disease and who has had over 50 hospital emergency visits since diagnosis in 2015. Treatment with multiple pharmaceutical agents were unsuccessful. They stopped using all pharmaceutical agents in 2018. In August 2020, they began using HCD and MCD. They were able to completely stop a Crohn's disease flare in November 2020 using two consecutive doses of MCD.
# [7] = system: volunteer with a developmental disorder; assay: Human trial of HCD or MCD for autism spectrum/schizophrenia spectrum disorder; type: in vivo
# Excerpt: An assigned person at birth nonbinary volunteer with a history of a developmental disorder whose symptoms span both Autism Spectrum Disorder and Schizophrenia Spectrum Disorder. They stopped taking all psychopharmaceutical agents in 2010 after beginning to use medical Cannabis daily. Outside of 3 relapses due to over 14+ days without Cannabis, they have had no issues managing their symptoms since. Due to decreased symptoms, they are highly functional, fully independent, and no longer meet criteria for their previous diagnoses. In August 2020, they began using the HCD and MCD. They have not missed a single dose of HCD in 5 months; it is their longest span of completely continuous compliance.
# [8] = system: volunteer with severe, chronic migraines; assay: Human trial of HCD or MCD for chronic migraine; type: in vivo
# [9] = target: T2, CB1R; details: known; cited from earlier work
# [10] = system: volunteer with HNPP; assay: Human trial of HCD or MCD for hereditary neuropathy with liability to pressure palsy (HNPP); type: in vivo
# Protocol: A volunteer has a rare genetic disorder, HNPP, resulting in neuropathic pain, muscle weakness, numbness, and loss of fine motor skills. The volunteer previously needed high doses (more than 5 g/day) of medical Cannabis to receive beneficial effects, but reduced overall intake when they began taking HCD and MCD. Their current dose schedule is 15-30 mg of HCD per day (˜7 mg-15 mg CBD) and MCD as needed. They are not taking any other medication.
# [11] = system: CB1R; details: performed similarly to THC, but at a lower potency; cited from earlier work
# [12] = has been shown; cited from earlier work
# [13] = smoking/inhalation at 575-600° F., 7 mg CBD isolate
# [14] = smoking/inhalation at 575-600° F., 25 mg CBD isolate
# T1 sequence (P34972 whole entry): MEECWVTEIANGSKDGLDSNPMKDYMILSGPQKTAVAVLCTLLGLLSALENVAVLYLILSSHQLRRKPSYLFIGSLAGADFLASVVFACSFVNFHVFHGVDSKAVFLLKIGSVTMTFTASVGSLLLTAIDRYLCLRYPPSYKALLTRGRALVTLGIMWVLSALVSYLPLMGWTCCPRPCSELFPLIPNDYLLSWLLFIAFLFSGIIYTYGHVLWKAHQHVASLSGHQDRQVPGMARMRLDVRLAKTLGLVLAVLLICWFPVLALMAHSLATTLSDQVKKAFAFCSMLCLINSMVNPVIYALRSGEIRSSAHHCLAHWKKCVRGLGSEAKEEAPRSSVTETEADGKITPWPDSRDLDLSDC
# T2 sequence (P21554 whole entry): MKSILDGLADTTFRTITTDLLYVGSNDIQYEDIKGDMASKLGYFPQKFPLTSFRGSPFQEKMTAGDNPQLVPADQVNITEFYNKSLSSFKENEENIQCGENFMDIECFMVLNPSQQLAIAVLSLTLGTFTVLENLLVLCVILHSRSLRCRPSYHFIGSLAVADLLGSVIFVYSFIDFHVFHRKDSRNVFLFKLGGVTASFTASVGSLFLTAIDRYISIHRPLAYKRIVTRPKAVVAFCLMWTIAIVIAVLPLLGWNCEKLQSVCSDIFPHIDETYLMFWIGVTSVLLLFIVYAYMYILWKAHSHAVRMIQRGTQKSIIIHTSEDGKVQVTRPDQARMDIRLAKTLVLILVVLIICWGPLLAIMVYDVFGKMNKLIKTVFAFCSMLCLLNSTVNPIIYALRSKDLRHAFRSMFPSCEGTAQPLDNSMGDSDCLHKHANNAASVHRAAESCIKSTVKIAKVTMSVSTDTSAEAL
smiles,measurement,setting,value
"C=C(C)[C@@H]1CCC(C)=C[C@H]1c1c(O)cc(CCCCC)cc1OC [omCBD, o-methylcannabidiol]",15-LOX inhibition,[1],selective and potent
"CCCCCc1cc(OC)c2c(c1)OC(C)(C)c1ccc(C)cc1-2 [omCBN, o-methylcannabinol]",Potency at CB2 receptor relative to CBN,[2],vastly increase its potency
same,Potency at CB1 receptor relative to CBN,[3],vastly increase its potency
"CCCCCc1cc(O)c2c(c1)OC(C)(C)c1ccc(C)cc1-2 [CBN, cannabinol]",Pentobarbital-induced sleeping time,[4],double
"CCCCCc1cc(OCCC)c2c(c1)OC(C)(C)c1ccc(C)cc1-2 [oprCBN, o-propylcannabinol]",Potency at CB2 receptor relative to CBN,[2],vastly increase its potency
same,Potency at CB1 receptor relative to CBN,[3],vastly increase its potency
"CCCCCc1cc(O)c2c(c1)OC(C)(C)[C@@H]1CCC(C)=C[C@@H]21 [THC, Δ9-tetrahydrocannabinol]",Activity at CB2R,[5],partial agonist activity at nanomolar concentrations
"C=C(C)[C@@H]1CCC(C)=C[C@H]1c1c(O)cc(CCCCC)cc1O [CBD, cannabidiol]",Oral dose needed to achieve results similar to 15 mg HCD,"[6]; commercially available CBD isolate, two or more consecutive days",over 50 mg
same,Time at which effects began to wear off,[6]; [13],45 min
same,Time at which no noticeable effects remained,[6]; [13],60 min
same,"Time of decreased pain, stress, and anxiety",[6]; [13],15 min
same,After effect observed the next day,[7]; 400-600 mg commercially available CBD isolate,“hangover”
same,Negative side effects,[7]; doses of 50 mg/day of CBD,"forgetfulness/brain fog, apathy, decreased endurance, decreased strength, interrupted sleep routine"
same,Dose used to abort panic attacks and/or break perseverative loops,"[7]; oral, same efficacy",400 to 600 mg
same,Potency compared to orally ingested hemp Cannabis distillate (times less potent),"[7]; orally ingested, Example 20",at least 10 times
same,Effect on migraines,"[8]; commercial CBD isolate 50 mg/day titrated up to 250 mg/day, after two months",marked decrease in the number and severity of migraines
same,Oral dose needed to achieve results similar to 15 mg HCD,"[8]; commercially available CBD isolate, anxiety, migraine threshold, migraine severity",over 200 mg
same,Activity at CB1R,[9],neutral antagonist activity at nanomolar concentrations
same,Effect after oral administration,"[10]; oral, 15-30 mg HCD or same dose of commercially available CBD isolate",no noticeable effect
same,Time at which effects began to wear off,[10]; [14],45 min
same,Time at which no noticeable effects remained,[10]; [14],60 min
same,Time at which pain relief began,[10]; [14],10 min
same,Activity at CB2R,[5],neutral antagonist activity at nanomolar concentrations
"CCCCCOc1cc(CCCCC)cc2c1-c1cc(C)ccc1C(C)(C)O2 [opeCBN, o-pentylcannabinol]",Potency at CB2 receptor relative to CBN,[2],vastly increase its potency
same,Potency at CB1 receptor relative to CBN,[3],vastly increase its potency
C=C1CC[C@@H]2[C@@H](C1)c1c(O)cc(CCCCC)cc1OC2(C)C [exo-tetrahydrocannabinol],Activity in drug discrimination trials,[11],partial agonist activity
same,Interaction with CB1R,[9],interact with CB1R
same,Antibacterial activity,[12],potent antibacterial activity
"CCCCCc1cc(O)c2c(c1)OC(C)(C)C1CCC(C)C=C21 (centres unmarked) [Δ10-Tetrahydrocannabinol, Δ10-tetrahydrocannabinol]",Interaction with CB1R,[9],interact with CB1R
